The values below are quoted from earlier work in patent US20240009323A1, “METHODS OF TREATING COLON CANCER USING NANOPARTICLE MTOR INHIBITOR COMBINATION THERAPY” (Abraxis BioScience, LLC, priority 2017, published 2024).

For series [1] the following is noted: in vivo.

As for `COc1ccc(COc2cc3oc(=O)c4cc(C(C)O)ccc4c3cc2OC)cc1` (centres unmarked) [Palomid 529], in series [1], the brain penetration entry is reported as “good brain penetration”. For the same compound, the “affinity for ABCB1/ABCG2” value in the series on ABCB1/ABCG2 was “lacks affinity”.
